Patent US20240050428A1 (Cullgen (Shanghai), Inc., priority 2020, published 2024)
Read-outs that look alike come from different tables or passages of the source.

Assays:
MOLM-13 cells = assay: Cell viability assay (CellTiter-Glo) in MOLM-13 cells, alone or with gilteritinib; type: cell-based; details: Homo sapiens, MOLM-13, 72 h, MOLM-13 cells, three days, CellTiter-Glo
MV4;11 cells = assay: Cell viability assay (CellTiter-Glo) in MV4;11 cells, alone or with gilteritinib; type: cell-based; details: MV4;11 cells, three days, CellTiter-Glo, read-out: MV4
[1] = compound alone (without gilteritinib), read-out: MOLM-13 IC50
[2] = with gilteritinib 20 nM, read-out: MOLM-13 IC50 gilteritinib
[3] = Homo sapiens, MV4-11, 72 h, compound alone (without gilteritinib), 11 IC50
[4] = Homo sapiens, MV4-11, 72 h, with gilteritinib 10 nM, 11 IC50 gilteritinib

Row | SMILES | IC50 (MOLM-13 cells; [1]) [nM] | IC50 (MOLM-13 cells; [2]) [nM] | IC50 (MV4;11 cells; [3]) [nM] | IC50 (MV4;11 cells; [4]) [nM] | IC50 (MV4;11 cells; compound alone (without gilteritinib), 11 IC50) [nM]
1 | CN1CCN(c2cccc(-c3cnn([C@H]4C[C@H](CCCNc5ccc6c(c5)C(=O)N(C5CCC(=O)NC5=O)C6=O)C4)c3)n2)CC1 (stereo partly drawn) [GS-245, 2-(2,6-Dioxopiperidin-3-yl)-5-((3-(trans-3-(4-(6-(4-methylpiperazin-1-yl)pyridin-2-yl)-1H-pyrazol-1-yl)cyclobutyl)propyl)amino)isoindoline-1,3-dione] | > 1000 | 100 to 1000 |  | 10 to 100 | > 1000
2 | O=C1CCC(N2C(=O)c3ccc(NCCC[C@H]4C[C@H](n5cc(-c6cccc(N7CCOCC7)n6)c(C6CC6)n5)C4)cc3C2=O)C(=O)N1 (stereo partly drawn) [GS-246, 5-((3-(trans-3-(3-Cyclopropyl-4-(6-morpholinopyridin-2-yl)-1H-pyrazol-1-yl)cyclobutyl)propyl)amino)-2-(2,6-dioxopiperidin-3-yl)isoindoline-1,3-dione] | > 1000 | 100 to 1000 | 100 to 1000 | 10 to 100 | 
3 | O=C1CCC(N2C(=O)c3ccc(NCCC[C@H]4C[C@H](n5cc(-c6cccc(=O)[nH]6)cn5)C4)cc3C2=O)C(=O)N1 (stereo partly drawn) [GS-249, 2-(2,6-Dioxopiperidin-3-yl)-5-((3-(trans-3-(4-(6-oxo-1,6-dihydropyridin-2-yl)-1H-pyrazol-1-yl)cyclobutyl)propyl)amino)isoindoline-1,3-dione] | > 1000 | 100 to 1000 | 100 to 1000 | > 1000 | 
4 | CNc1cccc(-c2cnn([C@H]3C[C@H](CCCNc4ccc5c(c4)C(=O)N(C4CCC(=O)NC4=O)C5=O)C3)c2)n1 (stereo partly drawn) [GS-251, 2-(2,6-Dioxopiperidin-3-yl)-5-((3-(trans-3-(4-(6-(methylamino)pyridin-2-yl)-1H-pyrazol-1-yl)cyclobutyl)propyl)amino)isoindoline-1,3-dione] | 100 to 1000 | 10 to 100 | 100 to 1000 | 10 to 100 | 
5 | Cc1ccnc(-c2cn([C@H]3C[C@H](CNc4ccc5c(c4)C(=O)N(C4CCC(=O)NC4=O)C5=O)C3)nc2C2CC2)c1 (stereo partly drawn) [GS-253, 5-(((trans-3-(3-Cyclopropyl-4-(4-methylpyridin-2-yl)-1H-pyrazol-1-yl)cyclobutyl)methyl)amino)-2-(2,6-dioxopiperidin-3-yl)isoindoline-1,3-dione] | 10 to 100 | < 10 | < 10 | < 10 | 
6 | O=C1CCC(N2C(=O)c3ccc(NC[C@H]4C[C@H](n5cc(-c6cccc(N7CCC7)n6)c(C6CC6)n5)C4)cc3C2=O)C(=O)N1 (stereo partly drawn) [GS-257, 5-(((trans-3-(4-(6-(Azetidin-1-yl)pyridin-2-yl)-3-cyclopropyl-1H-pyrazol-1-yl)cyclobutyl)methyl)amino)-2-(2,6-dioxopiperidin-3-yl)isoindoline-1,3-dione] | 10 to 100 | < 10 | < 10 | < 10 | 
7 | O=C1CCC(N2C(=O)c3ccc(NC[C@H]4C[C@H](n5cc(-c6cccc(NC7COC7)n6)c(C6CC6)n5)C4)cc3C2=O)C(=O)N1 (stereo partly drawn) [GS-260, 5-(((trans-3-(3-Cyclopropyl-4-(6-(oxetan-3-ylamino)pyridin-2-yl)-1H-pyrazol-1-yl)cyclobutyl)methyl)amino)-2-(2,6-dioxopiperidin-3-yl)isoindoline-1,3-dione] | 100 to 1000 | > 1000 | > 1000 | > 1000 | 
8 | Cc1cccnc1-c1cn([C@H]2C[C@H](CNc3ccc4c(c3)C(=O)N(C3CCC(=O)NC3=O)C4=O)C2)nc1C1CC1 (stereo partly drawn) [GS-261, 5-(((trans-3-(3-Cyclopropyl-4-(3-methylpyridin-2-yl)-1H-pyrazol-1-yl)cyclobutyl)methyl)amino)-2-(2,6-dioxopiperidin-3-yl)isoindoline-1,3-dione] | < 10 | < 10 | < 10 | < 10 | 
9 | CNc1cccc(-c2cn([C@H]3C[C@H](CNc4ccc5c(c4)C(=O)N(C4CCC(=O)NC4=O)C5=O)C3)nc2C2CC2)n1 (stereo partly drawn) [GS-263, 5-(((trans-3-(3-Cyclopropyl-4-(6-(methylamino)pyridin-2-yl)-1H-pyrazol-1-yl)cyclobutyl)methyl)amino)-2-(2,6-dioxopiperidin-3-yl)isoindoline-1,3-dione] | 100 to 1000 | 10 to 100 | 100 to 1000 | 10 to 100 | 

Second part, the compound after the results:

Row | IC50 (MOLM-13 cells; [1]) [nM] | IC50 (MOLM-13 cells; [2]) [nM] | IC50 (MV4;11 cells; [3]) [nM] | IC50 (MV4;11 cells; [4]) [nM] | IC50 (MV4;11 cells; compound alone (without gilteritinib), 11 IC50) [nM] | SMILES
10 | 10 to 100 | < 10 | 10 to 100 | < 10 |  | O=C1CCC(N2C(=O)c3ccc(NCCC[C@H]4C[C@H](n5cc(-c6cnc7ccccc7n6)c(C(F)F)n5)C4)cc3C2=O)C(=O)N1 (stereo partly drawn) [GS-243, 5-((3-(trans-3-(3-(Difluoromethyl)-4-(quinoxalin-2-yl)-1H-pyrazol-1-yl)cyclobutyl)propyl)amino)-2-(2,6-dioxopiperidin-3-yl)isoindoline-1,3-dione]
11 | > 1000 | 10 to 100 | 100 to 1000 | 10 to 100 |  | Cc1nn([C@H]2C[C@H](CCCNc3ccc4c(c3)C(=O)N(C3CCC(=O)NC3=O)C4=O)C2)cc1-c1cccc(N2CCOCC2)n1 (stereo partly drawn) [GS-244, 2-(2,6-Dioxopiperidin-3-yl)-5-((3-(trans-3-(3-methyl-4-(6-morpholinopyridin-2-yl)-1H-pyrazol-1-yl)cyclobutyl)propyl)amino)isoindoline-1,3-dione]
12 | > 1000 | 10 to 100 | 100 to 1000 | < 10 |  | O=C1CCC(N2C(=O)c3ccc(NCCC[C@H]4C[C@H](n5cc(-c6cccc(N7CCNCC7)n6)cn5)C4)cc3C2=O)C(=O)N1 (stereo partly drawn) [GS-247, 2-(2,6-Dioxopiperidin-3-yl)-5-((3-(trans-3-(4-(6-(piperazin-1-yl)pyridin-2-yl)-1H-pyrazol-1-yl)cyclobutyl)propyl)amino)isoindoline-1,3-dione]
13 | > 1000 | 10 to 100 | 10 to 100 | 10 to 100 |  | CN(C)c1cccc(-c2cnn([C@H]3C[C@H](CCCNc4ccc5c(c4)C(=O)N(C4CCC(=O)NC4=O)C5=O)C3)c2)n1 (stereo partly drawn) [GS-248, 5-((3-(trans-3-(4-(6-(Dimethylamino)pyridin-2-yl)-1H-pyrazol-1-yl)cyclobutyl)propyl)amino)-2-(2,6-dioxopiperidin-3-yl)isoindoline-1,3-dione]
14 | 100 to 1000 | 10 to 100 | 100 to 1000 | 10 to 100 |  | O=C1CCC(N2C(=O)c3ccc(NCCC[C@H]4C[C@H](n5cc(-c6cnc7c(C8CNC8)cccc7n6)cn5)C4)cc3C2=O)C(=O)N1 (stereo partly drawn) [GS-250, 5-((3-(trans-3-(4-(5-(Azetidin-3-yl)quinoxalin-2-yl)-1H-pyrazol-1-yl)cyclobutyl)propyl)amino)-2-(2,6-dioxopiperidin-3-yl)isoindoline-1,3-dione]
15 | > 1000 | > 1000 | 100 to 1000 | > 1000 |  | O=C1CCC(N2C(=O)c3ccc(NCCC[C@H]4C[C@H](n5cc(-c6cccc(N7CCC(O)CC7)n6)cn5)C4)cc3C2=O)C(=O)N1 (stereo partly drawn) [GS-252, 2-(2,6-Dioxopiperidin-3-yl)-5-((3-(trans-3-(4-(6-(4-hydroxypiperidin-1-yl)pyridin-2-yl)-1H-pyrazol-1-yl)cyclobutyl)propyl)amino)isoindoline-1,3-dione]
16 | 10 to 100 | < 10 | 10 to 100 | < 10 |  | COc1ccnc(-c2cn([C@H]3C[C@H](CNc4ccc5c(c4)C(=O)N(C4CCC(=O)NC4=O)C5=O)C3)nc2C2CC2)c1 (stereo partly drawn) [GS-254, 5-(((trans-3-(3-Cyclopropyl-4-(4-methoxypyridin-2-yl)-1H-pyrazol-1-yl)cyclobutyl)methyl)amino)-2-(2,6-dioxopiperidin-3-yl)isoindoline-1,3-dione]
17 | 100 to 1000 | < 10 | 10 to 100 | < 10 |  | O=C1CCC(N2C(=O)c3ccc(NC[C@H]4C[C@H](n5cc(-c6ccc(Cl)cn6)c(C6CC6)n5)C4)cc3C2=O)C(=O)N1 (stereo partly drawn) [GS-255, 5-(((trans-3-(4-(5-Chloropyridin-2-yl)-3-cyclopropyl-1H-pyrazol-1-yl)cyclobutyl)methyl)amino)-2-(2,6-dioxopiperidin-3-yl)isoindoline-1,3-dione]
18 | 100 to 1000 | < 10 | 10 to 100 | < 10 |  | Cc1ccc(-c2cn([C@H]3C[C@H](CNc4ccc5c(c4)C(=O)N(C4CCC(=O)NC4=O)C5=O)C3)nc2C2CC2)nc1 (stereo partly drawn) [GS-256, 5-(((trans-3-(3-Cyclopropyl-4-(5-methylpyridin-2-yl)-1H-pyrazol-1-yl)cyclobutyl)methyl)amino)-2-(2,6-dioxopiperidin-3-yl)isoindoline-1,3-dione]
19 | > 1000 | 10 to 100 | 100 to 1000 | 10 to 100 |  | O=C1CCC(N2C(=O)c3ccc(NC[C@H]4C[C@H](n5cc(-c6cccc(NC7CCC7)n6)c(C6CC6)n5)C4)cc3C2=O)C(=O)N1 (stereo partly drawn) [GS-258, 5-(((trans-3-(4-(6-(Cyclobutylamino)pyridin-2-yl)-3-cyclopropyl-1H-pyrazol-1-yl)cyclobutyl)methyl)amino)-2-(2,6-dioxopiperidin-3-yl)isoindoline-1,3-dione]
20 | 10 to 100 | < 10 | < 10 | < 10 |  | CN(C)c1cccc(-c2cn([C@H]3C[C@H](CNc4ccc5c(c4)C(=O)N(C4CCC(=O)NC4=O)C5=O)C3)nc2C2CC2)n1 (stereo partly drawn) [GS-259, 5-(((trans-3-(3-Cyclopropyl-4-(6-(dimethylamino)pyridin-2-yl)-1H-pyrazol-1-yl)cyclobutyl)methyl)amino)-2-(2,6-dioxopiperidin-3-yl)isoindoline-1,3-dione]
21 | < 10 | < 10 | < 10 | < 10 |  | COc1cccnc1-c1cn([C@H]2C[C@H](CNc3ccc4c(c3)C(=O)N(C3CCC(=O)NC3=O)C4=O)C2)nc1C1CC1 (stereo partly drawn) [GS-262, 5-(((trans-3-(3-Cyclopropyl-4-(3-methoxypyridin-2-yl)-1H-pyrazol-1-yl)cyclobutyl)methyl)amino)-2-(2,6-dioxopiperidin-3-yl)isoindoline-1,3-dione]
